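Five concentrations, 48 hours, 96-well plates. At the GI50, growth is halved. TGI is the concentration that stops growth completely.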
Tests used:
Assay in all cases: inhibition of tumour cell growth, NCI panel, 48 h
MDA-MB-435 = tested on: MDA-MB-435
786-0 renal = tested on: 786-0 renal
CCRF-CEM leukemia = tested on: CCRF-CEM leukemia
OVCAR-8 ovarian = tested on: OVCAR-8 ovarian
MDA-MB-231 breast = tested on: MDA-MB-231 breast
SNB-75 CNS = tested on: SNB-75 CNS
M14 melanoma = tested on: M14 melanoma
NCI/ADR-RES ovarian = tested on: NCI/ADR-RES ovarian
SF-295 CNS = tested on: SF-295 CNS
MOLT-4 leukemia = tested on: MOLT-4 leukemia

Structure (SMILES)	GI50 (MDA-MB-435)	TGI (MDA-MB-435)	GI50 (786-0 renal)	TGI (786-0 renal)	GI50 (CCRF-CEM leukemia)	TGI (CCRF-CEM leukemia)	GI50 (OVCAR-8 ovarian)	TGI (OVCAR-8 ovarian)	GI50 (MDA-MB-231 breast)	TGI (MDA-MB-231 breast)	GI50 (SNB-75 CNS)	TGI (SNB-75 CNS)	GI50 (M14 melanoma)	TGI (M14 melanoma)	GI50 (NCI/ADR-RES ovarian)	TGI (NCI/ADR-RES ovarian)	GI50 (SF-295 CNS)	TGI (SF-295 CNS)	GI50 (MOLT-4 leukemia)	TGI (MOLT-4 leukemia)
COc1ccc(-c2cc(-c3ccc(Cl)cc3)nc(SCCCCCCC(=O)NO)n2)cc1	2.12 µM	11 µM	1.16 µM	3.26 µM	0.861 µM	14.4 µM	1.53 µM	> 50 µM	1.74 µM	8.89 µM	1.36 µM	23.8 µM	1.26 µM	4.74 µM	0.876 µM	3.83 µM	1.22 µM	3.01 µM	0.79 µM	2.93 µM
CN[C@H]1CC[C@]23C[C@]24CC[C@]2(C)[C@@H]([C@H](C)N(C)C)CC[C@@]2(C)[C@@H]4CC[C@H]3C1(C)C	–	29.8 µM	–	19.8 µM	–	98.8 µM	–	32.9 µM	–	38.2 µM	–	33.2 µM	–	37.2 µM	–	36.6 µM	–	31.2 µM	–	60.1 µM
NC(N)=NC(N)=Nc1ccc(S(N)(=O)=O)cc1	–	> 100 µM	–	> 100 µM	–	> 100 µM	–	> 100 µM	–	> 100 µM	–	> 100 µM	–	> 100 µM	–	> 100 µM	–	> 100 µM	–	> 100 µM
CCCc1n(Cc2ccc3ccccc3n2)cc[n+]1Cc1ccc2ccccc2c1	0.443 µM	2.17 µM	2.93 µM	10.2 µM	0.688 µM	6.1 µM	0.779 µM	4.65 µM	1.05 µM	2.86 µM	0.41 µM	3.47 µM	0.637 µM	2.76 µM	32.8 µM	> 100 µM	2.06 µM	5.76 µM	0.708 µM	6.08 µM
CCCCCCC/C=C1\CCC(CN(C)C)C1=O (stereo not given)	–	18.8 µM	–	3.84 µM	–	13 µM	–	18 µM	–	8.72 µM	–	33.1 µM	–	23.6 µM	–	14.6 µM	–	30.1 µM	–	7 µM
CC(C)=CCc1c(O)c(C(=O)CC(C)C)c(O)c2c(-c3ccccc3)cc(=O)oc12	11.8 µM	> 50 µM	10.7 µM	> 50 µM	5.11 µM	> 50 µM	8.98 µM	> 50 µM	8.26 µM	22 µM	9.27 µM	41.9 µM	11.5 µM	> 50 µM	9.25 µM	> 50 µM	10 µM	43.5 µM	10.3 µM	> 50 µM
CCOC(=O)C(=O)C(/C(=N/N(C)C)C(=O)Nc1ccc(C)cc1C)c1nc2ccccc2[nH]c1=O (stereo not given)	–	> 100 µM	–	> 100 µM	–	> 100 µM	–	> 100 µM	–	> 100 µM	–	> 100 µM	–	> 100 µM	–	> 100 µM	–	> 100 µM	–	> 100 µM
N#Cc1ccc(NC(=O)Nc2nc3ccc(OC(F)(F)F)cc3s2)cc1	1.42 µM	6.79 µM	2 µM	6.35 µM	1.51 µM	> 100 µM	2 µM	9.91 µM	0.935 µM	3.65 µM	1.84 µM	7.19 µM	2.37 µM	6.53 µM	1.55 µM	8.39 µM	1.18 µM	4.22 µM	1.88 µM	13.4 µM
CCCCCCCCCCCCC(NC(C)=O)(C(=O)OCC)C(=O)OCC	12.6 µM	31.7 µM	14.9 µM	29.3 µM	16.8 µM	41.6 µM	12.7 µM	32.3 µM	12.6 µM	26.7 µM	11.3 µM	23.8 µM	12.7 µM	27.3 µM	10.3 µM	23.7 µM	11.2 µM	26.9 µM	18.2 µM	62.4 µM
C=C(C)[C@@H]1CC[C@]2(CN)CC[C@]3(C)[C@H](CC[C@@H]4[C@@]5(C)CCC(N)[C@@](C)(CO)[C@@H]5CC[C@]43C)[C@@H]12 (stereo not given in full)	1.85 µM	3.46 µM	1.64 µM	3.11 µM	1.71 µM	3.65 µM	1.86 µM	3.57 µM	1.84 µM	3.32 µM	1.62 µM	3.07 µM	1.81 µM	3.32 µM	2.6 µM	6.59 µM	1.76 µM	3.23 µM	1.7 µM	3.58 µM
CN1CCN(Cc2ccc(NC(=O)c3cccc(C#Cc4c(N)ncc5ccc(F)cc45)c3)cc2C(F)(F)F)CC1	0.763 µM	1.47 µM	0.966 µM	1.74 µM	0.989 µM	2.58 µM	1.03 µM	2.56 µM	0.545 µM	1.21 µM	0.257 µM	0.866 µM	0.463 µM	1.24 µM	1.02 µM	2.55 µM	0.917 µM	1.78 µM	0.681 µM	1.63 µM

— PubChem BioAssay (NCI)
